Experimental data taken from patent US4576625A, “Fertilizers containing urea with urease inhibitors” (Huls Aktiengesellschaft, priority 1983, dated 1986).
Several values for one entry are separate records, joined by “and”; a condition that tells them apart may be missing. Equal values may be shown once.

Legend:
[1] = system: urease; format: biochemical
[2] = system: rye grass; assay: Pot experiments with rye grass, urea as soil fertilizer with various urease inhibitors (Table 6); format: in vivo; conditions: urea four times 1.0 g N/pot; inhibitor 2% of the urea quantity; loamy sand pH 5.6
Text: (§1) The results of the tests in Mitscherlich pots are compiled in Tables 6 and 7.
In Table 6 the various urease inhibitors as urea additives for soil fertilization are compared with one another. Both in overall crop yield as well as in N absorption and in raw protein content, the best results are achieved with bromo-nitro compounds. The maleic derivatives and the quinone product furnish poorer results.
(§2) The mixtures according to the invention used for the experiments of these tables were produced by powdering the urea prills with said bromo-nitro compounds; optionally, the prills can be sprayed before powdering with a hydrocarbon oil to improve adhesion. The bromo-nitro compounds soluble in liquid fertilizers containing urea pose no problems of distribution in dissolved fertilizers containing urea. In the case of slightly soluble bromo-nitro compounds, stirring must occur during the distribution. Optionally, solutizing agents can be added.

[3] = system: rats; conditions: oral ingestion by rats; cited from earlier work
[4] = system: rye grass; assay: Pot tests for rye grass, urea as soil fertilizer optionally with 2% urease inhibitors, compared with KAS (Table 7); format: in vivo; conditions: for N Absorption / Raw Protein % of Dry Subst / Dry Substance: 2% inhibitor where added; for Dry Substance: 5 cuttings
Experimental: as §1
In the experiments in Table 7 on rye grass, urea, with and without urease inhibitors, used as a soil fertilizer in application amounts between 0.5 and 1.0 g N/pot, was tested in comparison with KAS. As a product from the maleinimide group, Substance 64 from Table 1, i.e. N-methylmaleinimide was added; from the bromo-nitro compounds, Substance 1 of Table 2, bromo-2-nitropropyl-N-methylcarbamate was added. […] The yield of dry solids scarcely increases as the application of fertilizer increases from 0.75 to 1.0 g N both with urea fertilization alone as well as with the addition of a maleinimide compound.
as §2

[5] = system: spring wheat, sirocco type; assay: Pot tests with spring wheat, urea or AUS as leaf fertilizer with urease inhibitor (Table 8); format: in vivo
Text: (In the case of the test series with AUS and urea, equal quantities of N were used. The quantities of the urease inhibitors used were increased in the same way in both test series. If, however, the inhibitor material is related to the use of urea-N, this means that in the case of AUS double the quantity comes into play.)

[6] = Critical relative humidity (water activity) of fertilizer solutions; format: physicochemical; conditions: 50% urea solution as for 100% salts; between 10° and 30° C.
[7] = AUS leaf fertilizer, inhibitor quantity 4 per 100 g urea-N
[8] = AUS leaf fertilizer, inhibitor quantity 8 per 100 g urea-N
[9] = urea solution leaf fertilizer, inhibitor quantity 2 per 100 g urea-N
[10] = urea solution leaf fertilizer, inhibitor quantity 4 per 100 g urea-N

O=[N+]([O-])C(Br)(CO)CO [Subst. 3-Tab. 3, 2-Bromo-2-nitro-propan-1,3-diol]
N losses of the soil through NH3 volatilization as % of the urea-N quantities used [1]: 0.9% and 0.0%
N losses of the soil through NH3 volatilization calculated as % of the urea-N quantities used [1]: 0.0% and 0.5%
Dry Substance 1st-5th Cutting [2]: 128.6 g/Pot
N-absorption [2]: 3.15 g/Pot
Raw Protein % in Dry Substance [2]: 15.3%
LD50 [3]: 400 mg/kg

CCN1C(=O)C=CC1=O [Subst. 56-Tab. 1, N--Ethylmaleinimide, reference compound]
urease inhibitor effect (in words) [1]: best inhibitor effects

O=C1C=CC(=O)C=C1 [Subst. 31-Tab. 1, 1,4-Benzoquinone]
Dry Substance 1st-5th Cutting [2]: 118.3 g/Pot
N-absorption [2]: 2.54 g/Pot
Raw Protein % in Dry Substance [2]: 13.4%

CN1C(=O)C=CC1=O [Subst. 64-Tab. 1, N--Methylmaleinimide, reference compound]
urease inhibitor effect (in words) [1]: best inhibitor effects
N Absorption ([4]; N fertilization 0.5 g N/pot): 1285 mg/Pot
Raw Protein % of Dry Subst ([4]; N fertilization 0.5 g N/pot): 11.66%
N Absorption ([4]; N fertilization 0.75 g N/pot): 1676 mg/Pot
Raw Protein % of Dry Subst ([4]; N fertilization 0.75 g N/pot): 12.82%
N Absorption ([4]; N fertilization 1.0 g N/pot): 1944 mg/Pot
Raw Protein % of Dry Subst ([4]; N fertilization 1.0 g N/pot): 14.84%

CC(C)C(O)C(Br)[N+](=O)[O-] (centres unmarked) [Subst. 8-Tab. 3, 1-Bromo-1-nitro-3-methyl-butane-2-ol]
N losses of the soil through NH3 volatilization as % of the urea-N quantities used [1]: 10.0% and 0.1%

CCC(Br)(COC(=O)NC)[N+](=O)[O-] (centres unmarked) [Subst. 2-Tab. 3, 2-Bromo-2-nitro-butyl-N--methylcarbamate]
N losses of the soil through NH3 volatilization as % of the urea-N quantities used [1]: 0.5% and 0.0%

CC(O)C(Br)[N+](=O)[O-] (centres unmarked) [Subst. 11-Tab. 3, 1-Bromo-1-nitro-propanol-2]
N losses of the soil through NH3 volatilization as % of the urea-N quantities used [1]: 2.3%

O=C1C=CC(=O)N1CO [Subst. 66-Tab. 1, N--Methylolmaleinimide]
urease inhibitor effect (in words) [1]: best inhibitor effects
Dry Substance 1st-5th Cutting [2]: 125.0 g/Pot
N-absorption [2]: 2.85 g/Pot
Raw Protein % in Dry Substance [2]: 14.3%

CNC(=O)OCC(C)(Br)[N+](=O)[O-] (centres unmarked) [Subst. 1-Tab. 3, 2-Bromo-2-nitro-propyl-N--methylcarbamate]
N losses of the soil through NH3 volatilization as % of the urea-N quantities used [1]: 0.3% and 0.0%
N losses of the soil through NH3 volatilization calculated as % of the urea-N quantities used [1]: 0.0% and 1.2% and 0.1%
Dry Substance 1st-5th Cutting [2]: 131.7 g/Pot
N-absorption [2]: 3.29 g/Pot
Raw Protein % in Dry Substance [2]: 15.6%
N Absorption ([4]; N fertilization 0.5 g N/pot): 1432 mg/Pot
Raw Protein % of Dry Subst ([4]; N fertilization 0.5 g N/pot): 12.62%
Dry Substance ([4]; N fertilization 0.5 g N/pot): 70.9 g/Pot
N Absorption ([4]; N fertilization 0.75 g N/pot): 2095 mg/Pot
Raw Protein % of Dry Subst ([4]; N fertilization 0.75 g N/pot): 16.43%
Dry Substance ([4]; N fertilization 0.75 g N/pot): 79.7 g/Pot
N Absorption ([4]; N fertilization 1.0 g N/pot): 2720 mg/Pot
Raw Protein % of Dry Subst ([4]; N fertilization 1.0 g N/pot): 19.68%
Dry Substance ([4]; N fertilization 1.0 g N/pot): 86.4 g/Pot
comparison of fertilizer combinations (in words) ([4]; urea + 2% inhibitor): superior to the corresponding mixture with 2% of a maleinimide compound
Dry Substance [5, 7]: 68.68 g/pot
N Absorption [5, 7]: 1058 mg/pot
Raw Protein [5, 7]: 9.63%
Dry Substance [5, 8]: 68.69 g/pot
N Absorption [5, 8]: 1051 mg/pot
Raw Protein [5, 8]: 9.56%
Dry Substance [5, 9]: 65.11 g/pot
N Absorption [5, 9]: 951 mg/pot
Raw Protein [5, 9]: 9.13%
Dry Substance [5, 10]: 68.36 g/pot
N Absorption [5, 10]: 1046 mg/pot
Raw Protein [5, 10]: 9.56%

O=C1C2C3C=CC(C3)C2C(=O)N1SC(Cl)(Cl)Cl (centres unmarked) [Subst. 23-Tab. 2, reference compound]
urease inhibitor effect (in words) [1]: No outstanding inhibitor effect

CC(C)(C)C(O)C(Br)[N+](=O)[O-] (centres unmarked) [Subst. 5-Tab. 3, 1-Bromo-1-nitro-3,3.dimethyl-butane-2-ol]
N losses of the soil through NH3 volatilization as % of the urea-N quantities used [1]: 4.7% and 0.0%

CC(Br)(CO)[N+](=O)[O-] (centres unmarked) [Subst. 4-Tab. 3, 2-Bromo-2-nitro-propanol]
N losses of the soil through NH3 volatilization as % of the urea-N quantities used [1]: 2.1% and 0.0%
Dry Substance 1st-5th Cutting [2]: 127.8 g/Pot
N-absorption [2]: 3.09 g/Pot
Raw Protein % in Dry Substance [2]: 15.1%

O=C1C=CC(=O)N1 [Subst. 61-Tab. 1, Maleinimide, reference compound]
urease inhibitor effect (in words) [1]: best inhibitor effects

CC(=O)OCN1C(=O)C=CC1=O [Subst. 48-Tab. 1, N--Acetoximethylmaleinimide]
urease inhibitor effect (in words) [1]: best inhibitor effects
Dry Substance 1st-5th Cutting [2]: 129.7 g/Pot
N-absorption [2]: 2.85 g/Pot
Raw Protein % in Dry Substance [2]: 13.7%

NC(N)=O [urea]
CRH value (critical relative humidity) [6]: 75-76%

CCC(O)C(Br)[N+](=O)[O-] (centres unmarked) [Subst. 7-Tab. 3, 1-Bromo-1-nitro-butanol-2]
N losses of the soil through NH3 volatilization as % of the urea-N quantities used [1]: 8.3% and 0.0%

CCCC(O)C(Br)[N+](=O)[O-] (centres unmarked) [Subst. 6-Tab. 3, 1-Bromo-1-nitro-pentanol-2]
N losses of the soil through NH3 volatilization as % of the urea-N quantities used [1]: 6.5% and 0.0%

O=C(Nc1ccccc1)OCN1C(=O)C=CC1=O [Subst. 68-Tab. 1, N--Methylolmaleinimide phenyl urethane]
Dry Substance 1st-5th Cutting [2]: 124.0 g/Pot
N-absorption [2]: 2.83 g/Pot
Raw Protein % in Dry Substance [2]: 14.3%
